From the NIST ThermoML archive (doi:10.1016/j.jct.2013.05.009)
Numbers after ± are expanded uncertainties.

Key:
[1] = 101 kPa, Liquid; for speed of sound: Sing-around technique in a fixed-path interferometer; for mass density: Vibrating tube method
[2] = refractive index (Na D-line) (dimensionless); details: 298.15 K; 101.33 kPa; Liquid; Standard Abbe refractometry
[3] = xn = mol fraction of the nth substance listed; details: 101 kPa, Liquid; for mass density: Vibrating tube method; for speed of sound: fixed-path interferometer

Q: Which results are given for `Cc1ccccc1` [toluene]?
A: speed of sound ([1]; 298.15 K): 1305.4 ± 1.2 m/s; mass density ([1]; 298.15 K): 862.19 ± 0.13 kg/m3; speed of sound ([1]; 308.15 K): 1262.7 ± 1.2 m/s; mass density ([1]; 308.15 K): 852.88 ± 0.14 kg/m3; speed of sound ([1]; 318.15 K): 1220.4 ± 1.2 m/s; mass density ([1]; 318.15 K): 843.6 ± 0.14 kg/m3; speed of sound ([1]; 328.15 K): 1178.6 ± 1.2 m/s; mass density ([1]; 328.15 K): 834.29 ± 0.14 kg/m3; refractive index [2]: 1.49393 ± 0.00072

Q: With `Cc1ccccc1` [toluene] + CCCCO as the molecule, how does the mass density ([3]; 298.15 K, x1 = 1) read?
A: The mass density was 862.19 ± 0.13 kg/m3.

Q: What about the speed of sound ([3]; 298.15 K, x1 = 1) of the same molecule?
A: The speed of sound was 1305.4 ± 1.2 m/s.

Q: What about the mass density ([3]; 308.15 K, x1 = 1) of the same molecule?
A: Its mass density is 852.88 ± 0.14 kg/m3.

Q: And the speed of sound ([3]; 308.15 K, x1 = 1)?
A: Its speed of sound is 1262.7 ± 1.2 m/s.

Q: What about the mass density ([3]; 318.15 K, x1 = 1) of the same molecule?
A: The mass density was 843.6 ± 0.14 kg/m3.

Q: What about the speed of sound ([3]; 318.15 K, x1 = 1) of the same molecule?
A: The speed of sound was 1220.4 ± 1.2 m/s.

Q: And the mass density ([3]; 328.15 K, x1 = 1)?
A: Its mass density is 834.29 ± 0.14 kg/m3.

Q: And the speed of sound ([3]; 328.15 K, x1 = 1)?
A: The speed of sound was 1178.6 ± 1.2 m/s.

Q: With `CC(C)CC(C)(C)C` [2,2,4-trimethylpentane] + Cc1ccccc1 as the molecule, how does the mass density ([3]; 298.15 K, x1 = 0.2055) read?
A: Its mass density is 811.87 ± 0.14 kg/m3.

Q: What about the mass density ([3]; 298.15 K, x1 = 0.403) of the same molecule?
A: The mass density was 772.32 ± 0.15 kg/m3.

Q: And the mass density ([3]; 298.15 K, x1 = 0.6062)?
A: The mass density was 738.6 ± 0.16 kg/m3.

Q: What about the mass density ([3]; 298.15 K, x1 = 0.8001) of the same molecule?
A: The mass density was 711.48 ± 0.17 kg/m3.

Q: And the speed of sound ([3]; 298.15 K, x1 = 0.2055)?
A: The speed of sound was 1235.8 ± 1.2 m/s.

Q: What about the speed of sound ([3]; 298.15 K, x1 = 0.403) of the same molecule?
A: Its speed of sound is 1184.2 ± 1.2 m/s.

Q: What about the speed of sound ([3]; 298.15 K, x1 = 0.6062) of the same molecule?
A: The speed of sound was 1142.4 ± 1.2 m/s.

Q: What about the speed of sound ([3]; 298.15 K, x1 = 0.8001) of the same molecule?
A: Its speed of sound is 1110 ± 1.2 m/s.

Q: And the mass density ([3]; 308.15 K, x1 = 0.2055)?
A: Its mass density is 802.88 ± 0.15 kg/m3.

Q: And the mass density ([3]; 308.15 K, x1 = 0.403)?
A: The mass density was 763.58 ± 0.16 kg/m3.

Q: What about the mass density ([3]; 308.15 K, x1 = 0.6062) of the same molecule?
A: The mass density was 730.06 ± 0.17 kg/m3.

Q: What about the mass density ([3]; 308.15 K, x1 = 0.8001) of the same molecule?
A: Its mass density is 703.11 ± 0.17 kg/m3.

Q: What about the speed of sound ([3]; 308.15 K, x1 = 0.2055) of the same molecule?
A: Its speed of sound is 1193.6 ± 1.2 m/s.

Q: And the speed of sound ([3]; 308.15 K, x1 = 0.403)?
A: The speed of sound was 1142.3 ± 1.2 m/s.

Q: What about the speed of sound ([3]; 308.15 K, x1 = 0.6062) of the same molecule?
A: The speed of sound was 1100.5 ± 1.2 m/s.

Q: And the speed of sound ([3]; 308.15 K, x1 = 0.8001)?
A: Its speed of sound is 1068.4 ± 1.2 m/s.

Q: And the mass density ([3]; 318.15 K, x1 = 0.2055)?
A: The mass density was 793.92 ± 0.15 kg/m3.

Q: And the mass density ([3]; 318.15 K, x1 = 0.403)?
A: The mass density was 754.88 ± 0.16 kg/m3.

Q: And the mass density ([3]; 318.15 K, x1 = 0.6062)?
A: Its mass density is 721.58 ± 0.17 kg/m3.

Q: What about the mass density ([3]; 318.15 K, x1 = 0.8001) of the same molecule?
A: The mass density was 694.81 ± 0.18 kg/m3.

Q: What about the speed of sound ([3]; 318.15 K, x1 = 0.2055) of the same molecule?
A: The speed of sound was 1151.9 ± 1.2 m/s.

Q: And the speed of sound ([3]; 318.15 K, x1 = 0.403)?
A: Its speed of sound is 1100.9 ± 1.2 m/s.

Q: What about the speed of sound ([3]; 318.15 K, x1 = 0.6062) of the same molecule?
A: Its speed of sound is 1059.3 ± 1.2 m/s.

Q: What about the speed of sound ([3]; 318.15 K, x1 = 0.8001) of the same molecule?
A: Its speed of sound is 1027.2 ± 1.2 m/s.

Q: And the mass density ([3]; 328.15 K, x1 = 0.2055)?
A: Its mass density is 784.96 ± 0.15 kg/m3.

Q: What about the mass density ([3]; 328.15 K, x1 = 0.403) of the same molecule?
A: Its mass density is 746.18 ± 0.16 kg/m3.

Q: And the mass density ([3]; 328.15 K, x1 = 0.6062)?
A: The mass density was 713.11 ± 0.17 kg/m3.

Q: And the mass density ([3]; 328.15 K, x1 = 0.8001)?
A: The mass density was 686.51 ± 0.18 kg/m3.

Q: And the speed of sound ([3]; 328.15 K, x1 = 0.2055)?
A: The speed of sound was 1110.8 ± 1.2 m/s.

Q: And the speed of sound ([3]; 328.15 K, x1 = 0.403)?
A: The speed of sound was 1060.1 ± 1.2 m/s.

Q: What about the speed of sound ([3]; 328.15 K, x1 = 0.6062) of the same molecule?
A: Its speed of sound is 1018.7 ± 1.2 m/s.

Q: And the speed of sound ([3]; 328.15 K, x1 = 0.8001)?
A: The speed of sound was 986.7 ± 1.2 m/s.

Q: Which results are given for `CCCCO` [butan-1-ol] + CC(C)CC(C)(C)C?
A: mass density ([3]; 298.15 K, x2 = 0): 805.74 ± 0.15 kg/m3; speed of sound ([3]; 298.15 K, x2 = 0): 1239.9 ± 1.2 m/s; mass density ([3]; 308.15 K, x2 = 0): 798.07 ± 0.15 kg/m3; speed of sound ([3]; 308.15 K, x2 = 0): 1206.6 ± 1.2 m/s; mass density ([3]; 318.15 K, x2 = 0): 790.38 ± 0.15 kg/m3; speed of sound ([3]; 318.15 K, x2 = 0): 1173.4 ± 1.2 m/s; mass density ([3]; 328.15 K, x2 = 0): 782.58 ± 0.15 kg/m3; speed of sound ([3]; 328.15 K, x2 = 0): 1140.4 ± 1.2 m/s

Q: For `CC(C)CC(C)(C)C` [2,2,4-trimethylpentane], which speed of sound ([1]; 298.15 K) is on record?
A: Its speed of sound is 1082.7 ± 1.2 m/s.

Q: What about the mass density ([1]; 298.15 K) of the same molecule?
A: Its mass density is 687.68 ± 0.18 kg/m3.

Q: What about the speed of sound ([1]; 308.15 K) of the same molecule?
A: Its speed of sound is 1041.1 ± 1.2 m/s.

Q: And the mass density ([1]; 308.15 K)?
A: The mass density was 679.45 ± 0.18 kg/m3.

Q: And the speed of sound ([1]; 318.15 K)?
A: Its speed of sound is 1000.1 ± 1.2 m/s.

Q: And the mass density ([1]; 318.15 K)?
A: The mass density was 671.3 ± 0.18 kg/m3.

Q: What about the speed of sound ([1]; 328.15 K) of the same molecule?
A: Its speed of sound is 959.4 ± 1.2 m/s.

Q: And the mass density ([1]; 328.15 K)?
A: Its mass density is 663.17 ± 0.18 kg/m3.

Q: And the refractive index [2]?
A: Its refractive index is 1.38901 ± 0.00072.

Q: For `CCCCO` [butan-1-ol], which speed of sound ([1]; 298.15 K) is on record?
A: Its speed of sound is 1239.9 ± 1.2 m/s.

Q: And the mass density ([1]; 298.15 K)?
A: The mass density was 805.74 ± 0.15 kg/m3.

Q: What about the speed of sound ([1]; 308.15 K) of the same molecule?
A: The speed of sound was 1206.6 ± 1.2 m/s.

Q: And the mass density ([1]; 308.15 K)?
A: The mass density was 798.07 ± 0.15 kg/m3.

Q: What about the speed of sound ([1]; 318.15 K) of the same molecule?
A: The speed of sound was 1173.4 ± 1.2 m/s.

Q: What about the mass density ([1]; 318.15 K) of the same molecule?
A: Its mass density is 790.38 ± 0.15 kg/m3.

Q: And the speed of sound ([1]; 328.15 K)?
A: Its speed of sound is 1140.4 ± 1.2 m/s.

Q: What about the mass density ([1]; 328.15 K) of the same molecule?
A: Its mass density is 782.58 ± 0.15 kg/m3.

Q: What about the refractive index [2] of the same molecule?
A: Its refractive index is 1.39733 ± 0.00072.
